Values quoted from earlier work, collected in patent US20220160649A1, “PHARMACEUTICAL COMPOSITION” (priority 2019, published 2022).

Conditions: stated as well known

solubility in water: almost insoluble
Compound: Oc1ccc(/C=C/c2cc(O)cc(O)c2)cc1 [resveratrol (IIIA), resveratrol]
